Assay results: patent publication US11524940B1, “Inhibitors of cysteine proteases and methods of use thereof” (priority 2020, dated 2022)

Key:
SARS-CoV2 Mpro = SARS-CoV2 Mpro (Severe acute respiratory syndrome coronavirus 2 (2019-nCoV) (SARS-CoV-2), UniProt P0DTD1); test: COVID-19 (SARS-CoV2) Mpro enzymatic assay; format: biochemical; details: 25 nM Mpro, 25 μM substrate
229E Mpro = 229E Mpro (Human coronavirus 229E (HCoV-229E), UniProt P0C6X1); test: 229E Mpro activity; format: biochemical; details: read-out: 229E Mpro EC50
Method: Compounds are assayed using standard methods to assess compound activity and IC50. […] The assay buffer contains 20 mM of Tris-HCl (pH 7.3), 100 mM of NaCl, 1 mM of EDTA, 5mM of TCEP and 0.1% BSA.

[1] = system: Human Coronavirus (HCov) 229E; test: HCoV 229E cytopathic effect (CPE) assay; format: cell-based; details: protection from virus-induced CPE, CellTiter Glo
Method: The antiviral activity of compounds is calculated based on the protection of the virus-induced CPE at each concentration normalized by the virus control.
Reagents and instruments used in this assay include luminescent cell viability assay kit CellTiter Glo (Promega) and Microplate Reader Synergy2 (BioTek).
Cytopathic effect (CPE) is measured by CellTiter Glo following the manufacturer's manual. The antiviral activity of compounds is calculated based on the protection of the virus-induced CPE at each concentration normalized by the virus control.

Chain of 229E Mpro (P0C6X1 2966-3267 limits assumed): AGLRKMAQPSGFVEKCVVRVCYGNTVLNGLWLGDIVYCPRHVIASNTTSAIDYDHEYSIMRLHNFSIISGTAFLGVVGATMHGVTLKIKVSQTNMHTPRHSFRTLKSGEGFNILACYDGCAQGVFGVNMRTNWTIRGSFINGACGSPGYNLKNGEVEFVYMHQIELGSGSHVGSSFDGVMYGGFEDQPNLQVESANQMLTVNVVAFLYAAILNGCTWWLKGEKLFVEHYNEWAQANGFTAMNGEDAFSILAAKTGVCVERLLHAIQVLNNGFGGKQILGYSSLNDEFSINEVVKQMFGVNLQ

Row | Molecule | IC50 (SARS-CoV2 Mpro) [nM] | EC50 (229E Mpro) [nM] | EC50 ([1]; human coronavirus 229E) [nM] | EC50 [1] [nM]
1 | N#C[C@H](C[C@@H]1CCCNC1=O)NC(=O)C1CC2(CCCCC2)CN1C(=O)c1cc2ccc(Cl)cc2[nH]1 (single isomer, unassigned) [733 (Isomer 1)] | < 2000 | < 2000 | < 2000 | 
2 | COc1cccc2[nH]c(C(=O)N3C[C@H]4C([C@H]3C(=O)N[C@H](C#N)C[C@@H]3CCNC3=O)C4(C)C)cc12 (stereo partly drawn) [Compound 197, (2S,5S)-N-[(1S)-1-cyano-2-[(3S)-2-oxopyrrolidin-3-yl]ethyl]-3-(4-methoxy-1H-indole-2-carbonyl)-6,6-dimethyl-3-azabicyclo[3.1.0]hexane-2-carboxamide] |  | < 2000 | < 2000 | 
3 | COc1cccc2[nH]c(C(=O)N[C@@H](CC(C)C)C(=O)N[C@@H](C[C@@H]3CCNC3=O)C(N)C#N)cc12 (stereo partly drawn) [Compound 344C, N-[(1S)-1-[[(1S)-2-amino-2-cyano-1-[[(3S)-2-oxopyrrolidin-3-yl]methyl]ethyl]carbamoyl]-3-methyl-butyl]-4-methoxy-1H-indole-2-carboxamide] |  | < 2000 | < 2000 | 
4 | COc1cccc2[nH]c(C(=O)N[C@@H](CC3CCC3)C(=O)N[C@H](C#N)C[C@@H]3CCNC3=O)cc12 [Compound 577, N-[(1S)-2-[[(1S)-1-cyano-2-[(3S)-2-oxopyrrolidin-3-yl]ethyl]amino]-1-(cyclobutylmethyl)-2-oxo-ethyl]-4-methoxy-1H-indole-2-carboxamide] |  | < 2000 | < 2000 | 
5 | (S)-N-((S)-1-cyano-2-((S)-2-oxopyrrolidin-3-yl)ethyl)-1-(4-methoxy-1H-indole-2-carbonyl)-4,4-dimethylpyrrolidine-2- carboxamide [Compound 395] | 2000 to 10000 | 10000 to 30000 |  | 2000 to 10000
6 | COc1cccc2[nH]c(C(=O)N[C@@H](CC(C)C)C(=O)N[C@@H](CC3CCNC3=O)C(C#N)NCc3ccccc3)cc12 (single isomer, unassigned) [507 (Isomer 2.2)] |  | < 2000 |  | < 2000
7 | CCCOc1cccc2[nH]c(C(=O)N[C@@H](CC3CC3)C(=O)N[C@H](C#N)C[C@@H]3CCNC3=O)cc12 [Compound 379, N-[(1S)-2-[[(1S)-1-cyano-2-[(3S)-2-oxopyrrolidin-3-yl]ethyl]amino]-1-(cyclopropylmethyl)-2-oxo-ethyl]-4-propoxy-1H-indole-2-carboxamide] |  | < 2000 | < 2000 | 
8 | CC(C)C[C@H](NC(=O)c1cc2c(OC(F)F)cccc2[nH]1)C(=O)N[C@H](C#N)C[C@@H]1CCNC1=O [Compound 509, N-[(1S)-1-[[(1S)-1-cyano-2-[(3S)-2-oxopyrrolidin-3-yl]ethyl]carbamoyl]-3-methyl-butyl]-4-(difluoromethoxy)-1H-indole-2-carboxamide] |  | < 2000 | < 2000 | 
9 | COc1cccc2[nH]c(C(=O)N[C@@H](CC(C)C)C(=O)N[C@H](C#N)C[C@@H]3CCNC3=O)cc12 [Compound 101, N-[(1S)-1-[[(1S)-1-cyano-2-[(3S)-2-oxopyrrolidin-3-yl]ethyl]carbamoyl]-3-methyl-butyl]-4-methoxy-1H-indole-2-carboxamide] |  | < 2000 | < 2000 | 
10 | N#C[C@H](C[C@@H]1CCNC1=O)NC(=O)[C@H](CC1CC1)NC(=O)c1cc2cc(Cl)ccc2[nH]1 [Compound 519, 5-chloro-N-[(1S)-2-[[(1S)-1-cyano-2-[(3S)-2-oxopyrrolidin-3-yl]ethyl]amino]-1-(cyclopropylmethyl)-2-oxo-ethyl]-1H-indole-2-carboxamide] |  | < 2000 | < 2000 | 
11 | COc1cccc2[nH]c(C(=O)N[C@@H](CC(C)(C)C)C(=O)N[C@H](C#N)C[C@@H]3CCCNC3=O)cc12 [Compound 643, N-[(1S)-1-[[(1S)-1-cyano-2-[(3S)-2-oxo-3-piperidyl]ethyl]carbamoyl]-3,3-dimethyl-butyl]-4-methoxy-1H-indole-2-carboxamide] |  | < 2000 | < 2000 | 
12 | N#C[C@H](C[C@@H]1CCCNC1=O)NC(=O)C1CC2(CCCCC2)CN1C(=O)c1cc2cccc(Cl)c2[nH]1 (single isomer, unassigned) [731 (Isomer 1)] | < 2000 | < 2000 | < 2000 | 
13 | N#C[C@H](C[C@@H]1CCNC1=O)NC(=O)[C@H](CC1CC1)NC(=O)c1cc2cccc(Cl)c2[nH]1 [Compound 531, 7-chloro-N-[(1S)-2-[[(1S)-1-cyano-2-[(3S)-2-oxopyrrolidin-3-yl]ethyl]amino]-1-(cyclopropylmethyl)-2-oxo-ethyl]-1H-indole-2-carboxamide] |  | < 2000 | < 2000 | 
14 | COc1cccc2[nH]c(C(=O)N3CC4(CC3C(=O)N[C@H](C#N)C[C@@H]3CCCNC3=O)CC(F)(F)C4)cc12 (single isomer, unassigned) [723 (Isomer 2)] | < 2000 | < 2000 | < 2000 | 
15 | COc1cccc2[nH]c(C(=O)N[C@@H](CC3CC3)C(=O)N[C@@]3(C#N)C[C@@H]4CC[C@H]3[C@@H]3C(=O)NC(=O)[C@H]43)cc12 (single isomer, unassigned) [489 (Isomer 2)] | > 30000 | > 30000 |  | 
16 | N#C[C@H](C[C@@H]1CCCNC1=O)NC(=O)C1CC2(CCCCC2)CN1C(=O)c1cc2ccc(Cl)cc2[nH]1 (single isomer, unassigned) [733 (Isomer 2)] | 2000 to 10000 | 2000 to 10000 |  | 
17 | COc1cccc2[nH]c(C(=O)N[C@@H](CC(C)C)C(=O)NC(C#N)c3cccnc3)cc12 (mixture of isomers) [Compound 433, N-[(1S)-1-[[cyano(3-pyridyl)methyl]carbamoyl]-3-methyl-butyl]-4-methoxy-1H-indole-2-carboxamide] |  | < 2000 | 2000 to 10000 | 
18 | N#C[C@H](C[C@@H]1CCNC1=O)NC(=O)C1CC2(CCC2)CN1C(=O)c1cc2cccc(Cl)c2[nH]1 (single isomer, unassigned) [988 (Isomer 1)] | > 30000 | > 30000 |  | 
19 | COc1cccc2[nH]c(C(=O)N[C@@H](CC(C)C)C(=O)N[C@@H](CC3CCNC3=O)C(C#N)NCc3ccccc3)cc12 (single isomer, unassigned) [507 (Isomer 1.2)] |  | < 2000 |  | < 2000
20 | COc1cc(Cl)c2[nH]c(C(=O)N3CC4(CCCCC4)CC3C(=O)N[C@H](C#N)C[C@@H]3CCCNC3=O)cc2c1 (single isomer, unassigned) [1147A (Isomer 1)] | < 2000 | < 2000 |  | 
21 | COc1ccc(Cl)c2[nH]c(C(=O)N3CC4(CCC4)CC3C(=O)N[C@H](C#N)C[C@@H]3CCNC3=O)cc12 (single isomer, unassigned) [992 (Isomer 1)] | < 2000 | < 2000 |  | 
22 | COc1cccc2[nH]c(C(=O)N[C@@H](CC(C)C)C(=O)N[C@@H](CC3CCNC3=O)C(C#N)NCc3ccccc3)cc12 (single isomer, unassigned) [507 (Isomer 1.1)] |  | < 2000 | < 2000 | 
23 | COc1cc(Cl)cc2[nH]c(C(=O)N3CC4(CCCCC4)CC3C(=O)N[C@H](C#N)C[C@@H]3CCCNC3=O)cc12 (single isomer, unassigned) [908 (Isomer 1)] | < 2000 | < 2000 |  | 
24 | N#C[C@H](C[C@@H]1CCNC1=O)NC(=O)C1CC2(CCC2)CN1C(=O)c1cc2ccc(Cl)cc2[nH]1 (single isomer, unassigned) [990 (Isomer 1)] | > 30000 | > 30000 |  | 
25 | N#C[C@H](C[C@@H]1CCCNC1=O)NC(=O)C1CC2(CCCCC2)CN1C(=O)c1cc2cccc(Cl)c2[nH]1 (single isomer, unassigned) [731 (Isomer 2)] | 2000 to 10000 | 10000 to 30000 |  | 
